Test results: BindingDB's records for doi:10.1016/j.bmcl.2017.04.089 (Mcdaniel College, 2017)

Biological target: Protein mono-ADP-ribosyltransferase PARP14 (Homo sapiens, UniProt Q460N5)
Experiment: Inhibition of recombinant human His6-tagged PARP14 catalytic/WWE domain (1459 to 1801 residues) expressed in Escherichia coli BL21(DE3) preincubated for 15 mins followed by biotinylated NAD+ addition by chemiluminescence assay

Chain of Protein mono-ADP-ribosyltransferase PARP14 (Q460N5 whole entry, the tested form may be a part): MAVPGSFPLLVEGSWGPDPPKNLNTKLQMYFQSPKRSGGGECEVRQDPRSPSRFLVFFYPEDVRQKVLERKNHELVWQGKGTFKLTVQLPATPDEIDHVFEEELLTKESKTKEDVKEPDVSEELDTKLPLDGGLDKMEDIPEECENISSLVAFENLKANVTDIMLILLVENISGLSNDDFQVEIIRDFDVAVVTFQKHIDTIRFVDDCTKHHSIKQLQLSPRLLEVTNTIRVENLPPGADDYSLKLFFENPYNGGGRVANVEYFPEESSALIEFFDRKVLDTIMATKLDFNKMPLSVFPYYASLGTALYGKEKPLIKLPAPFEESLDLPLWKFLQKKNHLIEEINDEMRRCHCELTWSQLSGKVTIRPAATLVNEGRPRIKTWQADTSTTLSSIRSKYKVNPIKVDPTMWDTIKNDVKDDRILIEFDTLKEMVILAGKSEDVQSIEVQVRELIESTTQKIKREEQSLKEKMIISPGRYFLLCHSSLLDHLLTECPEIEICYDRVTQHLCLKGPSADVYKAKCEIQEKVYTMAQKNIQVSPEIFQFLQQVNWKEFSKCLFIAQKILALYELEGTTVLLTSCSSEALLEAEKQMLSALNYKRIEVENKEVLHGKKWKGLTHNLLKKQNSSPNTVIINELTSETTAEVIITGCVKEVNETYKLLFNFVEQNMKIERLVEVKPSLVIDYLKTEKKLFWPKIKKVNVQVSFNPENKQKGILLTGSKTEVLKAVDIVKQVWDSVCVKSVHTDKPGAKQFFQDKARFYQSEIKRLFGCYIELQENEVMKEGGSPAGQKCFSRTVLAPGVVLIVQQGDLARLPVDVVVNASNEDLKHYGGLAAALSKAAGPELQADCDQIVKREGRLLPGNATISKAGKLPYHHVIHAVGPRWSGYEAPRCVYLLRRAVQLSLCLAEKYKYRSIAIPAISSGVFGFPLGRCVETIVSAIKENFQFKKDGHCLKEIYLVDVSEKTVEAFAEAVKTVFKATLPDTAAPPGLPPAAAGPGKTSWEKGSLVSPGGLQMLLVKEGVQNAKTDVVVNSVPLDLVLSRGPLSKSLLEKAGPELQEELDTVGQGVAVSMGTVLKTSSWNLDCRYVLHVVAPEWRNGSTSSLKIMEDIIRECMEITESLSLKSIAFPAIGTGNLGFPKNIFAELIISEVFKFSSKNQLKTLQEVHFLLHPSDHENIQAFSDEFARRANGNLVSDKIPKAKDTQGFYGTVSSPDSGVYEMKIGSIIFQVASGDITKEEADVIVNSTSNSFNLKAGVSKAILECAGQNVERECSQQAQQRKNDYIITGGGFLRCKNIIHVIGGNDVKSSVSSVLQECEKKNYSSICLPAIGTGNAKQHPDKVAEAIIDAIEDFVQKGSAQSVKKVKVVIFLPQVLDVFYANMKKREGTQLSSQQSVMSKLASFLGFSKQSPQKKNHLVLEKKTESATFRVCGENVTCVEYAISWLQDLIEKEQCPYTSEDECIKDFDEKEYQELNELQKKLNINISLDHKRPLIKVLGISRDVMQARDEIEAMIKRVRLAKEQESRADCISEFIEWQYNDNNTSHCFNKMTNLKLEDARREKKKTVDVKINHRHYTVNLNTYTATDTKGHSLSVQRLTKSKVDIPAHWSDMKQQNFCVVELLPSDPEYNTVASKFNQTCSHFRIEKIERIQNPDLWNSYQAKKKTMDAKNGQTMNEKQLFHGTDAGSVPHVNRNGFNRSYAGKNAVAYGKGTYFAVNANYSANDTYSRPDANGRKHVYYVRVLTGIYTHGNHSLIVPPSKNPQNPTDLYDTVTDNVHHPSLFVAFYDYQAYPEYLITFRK

- IC50: 1020 nM
SMILES: NC(=O)c1cccc(NC(=O)/C=C\C(=O)N2CCCC(Oc3ccccc3)C2)c1 (stereo unspecified)
